From ChEMBL document CHEMBL2331222, “Discovery of novel inhibitors of signal transducer and activator of transcription 3 (STAT3) signaling pathway by virtual screening” (Eur J Med Chem, 2013)
Calls of active or inactive are those of the source. The calls are words filed in the database; no cut-off is given here.

Columns and labels:
[1] = biological target: T1, Signal transducer and activator of transcription 3 (Homo sapiens, UniProt P40763); experiment: Inhibition of STAT3 in IL-6-stimulated human HepG2 cells at 10 uM treated for 1 hr prior to IL-6 challenge measured after 5.5 hrs by luciferase reporter gene assay; type: cell-based
T1 sequence (P40763 whole entry): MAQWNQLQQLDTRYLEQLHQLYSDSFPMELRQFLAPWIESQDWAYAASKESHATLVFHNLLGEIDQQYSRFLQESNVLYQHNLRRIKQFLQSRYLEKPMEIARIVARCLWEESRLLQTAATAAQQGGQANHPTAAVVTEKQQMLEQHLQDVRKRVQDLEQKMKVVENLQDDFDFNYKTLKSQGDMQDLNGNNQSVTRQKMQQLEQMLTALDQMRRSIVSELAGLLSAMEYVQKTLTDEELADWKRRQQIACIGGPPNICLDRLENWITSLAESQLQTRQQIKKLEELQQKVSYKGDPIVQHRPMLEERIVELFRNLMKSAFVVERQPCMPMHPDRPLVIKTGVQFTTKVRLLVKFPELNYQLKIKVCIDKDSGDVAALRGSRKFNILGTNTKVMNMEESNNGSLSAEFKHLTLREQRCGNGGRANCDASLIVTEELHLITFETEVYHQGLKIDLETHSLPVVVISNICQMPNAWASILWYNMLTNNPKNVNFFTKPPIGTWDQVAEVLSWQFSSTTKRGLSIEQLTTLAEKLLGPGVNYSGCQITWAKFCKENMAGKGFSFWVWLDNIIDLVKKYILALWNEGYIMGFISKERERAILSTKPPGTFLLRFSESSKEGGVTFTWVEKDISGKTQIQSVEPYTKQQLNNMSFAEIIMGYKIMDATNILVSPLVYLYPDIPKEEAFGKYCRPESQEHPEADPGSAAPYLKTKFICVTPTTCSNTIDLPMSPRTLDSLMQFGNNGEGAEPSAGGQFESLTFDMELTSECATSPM

MDA-MB-468 [2] = experiment: Cytotoxicity against human MDA-MB-468 cells harboring constitutively harboring activated STAT3 assessed as inhibition of cell viability at 10 uM after 72 hrs by MTT assay; type: functional; conditions: MDA-MB-468, 72 h
Homo sapiens = species on record: Homo sapiens; experiment: Inhibition of TNF-alpha-stimulated NF-kappaB (unknown origin) activity at 10 uM
[3] = biological target: T2, Signal transducer and activator of transcription 1-alpha/beta (Homo sapiens) (UniProt P42224); experiment: Inhibition of IFN-gamma-stimulated STAT1 (unknown origin) activity at 10 uM
T2 sequence (whole entry): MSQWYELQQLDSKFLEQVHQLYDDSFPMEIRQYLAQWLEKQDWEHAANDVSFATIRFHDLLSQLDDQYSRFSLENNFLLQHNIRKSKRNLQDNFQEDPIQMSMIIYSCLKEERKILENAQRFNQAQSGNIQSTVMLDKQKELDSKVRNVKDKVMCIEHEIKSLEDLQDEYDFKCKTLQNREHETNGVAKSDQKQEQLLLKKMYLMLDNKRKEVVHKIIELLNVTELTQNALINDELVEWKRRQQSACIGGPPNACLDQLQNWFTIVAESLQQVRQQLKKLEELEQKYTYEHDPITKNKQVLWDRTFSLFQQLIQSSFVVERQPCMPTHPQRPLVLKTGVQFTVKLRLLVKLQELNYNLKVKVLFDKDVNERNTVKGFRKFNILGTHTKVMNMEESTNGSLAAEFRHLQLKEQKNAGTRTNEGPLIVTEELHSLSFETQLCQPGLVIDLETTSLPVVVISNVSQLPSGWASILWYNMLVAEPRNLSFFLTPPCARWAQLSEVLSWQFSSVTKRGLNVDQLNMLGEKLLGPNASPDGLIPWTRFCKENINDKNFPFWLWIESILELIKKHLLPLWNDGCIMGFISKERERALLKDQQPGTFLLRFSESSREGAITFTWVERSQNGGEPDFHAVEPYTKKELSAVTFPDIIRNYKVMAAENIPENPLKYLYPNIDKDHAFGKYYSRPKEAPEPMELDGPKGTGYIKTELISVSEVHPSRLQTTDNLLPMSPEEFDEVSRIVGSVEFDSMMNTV

[4] = biological target: Tyrosine-protein kinase JAK2 (Homo sapiens) (UniProt O60674); experiment: Effect on JAK2 phosphorylation in IL-6 stimulated human HepG2 cells at 50 uM treated for 6 hrs before IL-6 stimulation measured after 15 mins by Western blot analysis; type: cell-based
Tyrosine-protein kinase JAK2 (Homo sapiens), sequence (O60674 whole entry): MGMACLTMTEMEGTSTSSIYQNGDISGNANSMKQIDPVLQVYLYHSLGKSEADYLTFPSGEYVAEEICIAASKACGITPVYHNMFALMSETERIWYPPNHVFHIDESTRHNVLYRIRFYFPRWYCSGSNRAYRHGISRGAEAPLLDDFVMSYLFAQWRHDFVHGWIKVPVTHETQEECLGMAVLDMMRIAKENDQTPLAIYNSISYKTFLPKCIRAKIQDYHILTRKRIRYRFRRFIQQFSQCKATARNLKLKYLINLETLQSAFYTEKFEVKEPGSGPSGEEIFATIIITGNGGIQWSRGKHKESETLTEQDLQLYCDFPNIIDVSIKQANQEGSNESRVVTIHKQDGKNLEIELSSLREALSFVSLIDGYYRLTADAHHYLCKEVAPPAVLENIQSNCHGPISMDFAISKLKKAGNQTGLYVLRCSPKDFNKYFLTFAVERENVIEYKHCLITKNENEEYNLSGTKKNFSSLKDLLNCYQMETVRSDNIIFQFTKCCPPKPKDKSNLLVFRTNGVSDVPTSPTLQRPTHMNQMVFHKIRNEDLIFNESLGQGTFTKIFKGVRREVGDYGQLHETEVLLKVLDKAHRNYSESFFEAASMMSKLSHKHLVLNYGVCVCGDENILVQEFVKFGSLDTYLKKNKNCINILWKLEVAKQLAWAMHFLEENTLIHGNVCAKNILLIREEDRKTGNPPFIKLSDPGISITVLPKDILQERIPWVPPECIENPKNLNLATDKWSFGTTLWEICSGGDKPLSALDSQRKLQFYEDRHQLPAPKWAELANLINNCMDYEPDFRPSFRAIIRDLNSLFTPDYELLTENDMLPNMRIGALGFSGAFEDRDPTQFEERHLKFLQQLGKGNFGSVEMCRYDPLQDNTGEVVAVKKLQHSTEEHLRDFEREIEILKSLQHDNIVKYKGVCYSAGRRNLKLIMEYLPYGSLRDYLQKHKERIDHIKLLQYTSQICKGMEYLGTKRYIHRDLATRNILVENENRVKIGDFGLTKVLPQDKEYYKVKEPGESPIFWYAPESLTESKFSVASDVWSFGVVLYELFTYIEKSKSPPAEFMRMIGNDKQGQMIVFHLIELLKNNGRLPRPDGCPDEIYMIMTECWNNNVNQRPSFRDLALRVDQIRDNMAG

HepG2 [5] = experiment: Effect on STAT3 level in IL-6 stimulated human HepG2 cells at 50 uM treated for 6 hrs before IL-6 stimulation measured after 15 mins by Western blot analysis; type: functional, cell-based
HepG2 [6] = experiment: Effect on JAK2 level in IL-6 stimulated human HepG2 cells at 50 uM treated for 6 hrs before IL-6 stimulation measured after 15 mins by Western blot analysis; type: functional, cell-based
MDA-MB-468 [7] = experiment: Cytotoxicity against human MDA-MB-468 cells harboring constitutively harboring activated STAT3 assessed as inhibition of cell viability after 72 hrs by MTT assay; type: functional, cell-based; conditions: MDA-MB-468, 72 h
[8] = biological target: T1, Signal transducer and activator of transcription 3; experiment: Inhibition of STAT3 phosphorylation at Tyr705 in IL-6 stimulated human HepG2 cells at 50 uM treated for 6 hrs before IL-6 stimulation measured after 15 mins by Western blot analysis; type: cell-based
[9] = biological target: T1, Signal transducer and activator of transcription 3; experiment: Inhibition of STAT3 in IL-6-stimulated human HepG2 cells treated for 1 hr prior to IL-6 challenge measured after 5.5 hrs by luciferase reporter gene assay; type: cell-based
[10] = biological target: T1, Signal transducer and activator of transcription 3; experiment: Inhibition of STAT3 phosphorylation at Tyr705 in IL-6 stimulated human HepG2 cells treated for 6 hrs before IL-6 stimulation measured after 15 mins by Western blot analysis; type: cell-based

SMILES | inhibition [1] [%] | inhibition at 10 µM (MDA-MB-468 [2]) [%] | also measured
O=C(CSc1nc2ccc(NC(=O)c3ccccc3)cc2s1)Nc1ccc(F)c(Cl)c1 |  | 9.04 | 
COc1ccc(NCc2nnc(SCC(=O)Nc3cccc4ccccc34)n2-c2ccc(OC)cc2)cc1 | 24 |  | 
COc1ccc(C(=O)Nc2ccc3nc(SCC(=O)Nc4ccc(F)c(Cl)c4)sc3c2)cc1 |  | 2.47 | 
CCc1cccc(CC)c1NC(=O)CSc1nc2ccc(NC(=O)C(C)C)cc2s1 | -8.31 | -17.4 | 
COc1ccccc1C(=O)Nc1ccc2nc(SCC(=O)Nc3c(C)cccc3C)sc2c1 | 21.5 | 39 | 
CCc1cccc(CC)c1NC(=O)CSc1nc2ccc(NC(=O)c3cccnc3)cc2s1 | 14.4 | 8.23 | 
CCc1cccc(CC)c1NC(=O)CSc1nc2ccc(NC(=O)c3ccc(OC)cc3)cc2s1 |  | -0.77 | 
CCC(=O)Nc1ccc2nc(SCC(=O)Nc3c(CC)cccc3CC)sc2c1 | 2.36 | -12 | 
COc1ccc(C(=O)Nc2ccc(C(=O)OCC(=O)c3cccc([N+](=O)[O-])c3)cc2)cc1OC | 38.5 |  | inhibition (Homo sapiens): -4.32%; inhibition [3]: 13.8%
CCC(Sc1nc2ccc(NC(=O)c3ccc(OC)cc3)cc2s1)C(=O)Nc1ccc(Br)cc1 (centres undefined) | 34.8 | 66.4 | Activity [4]: inactive; Activity (HepG2 [5]): inactive; inhibition [3]: 6.17%; Activity (HepG2 [6]): inactive; IC50 (MDA-MB-468 [7]): 8.83 µM; inhibition [8]: Active
CCc1cccc(CC)c1NC(=O)CSc1nc2ccc(NC(=O)C(C)Cl)cc2s1 (centres undefined) | -7.98 | -4.54 | 
CCc1cccc(CC)c1NC(=O)CSc1nc2ccc(NC(=O)c3ccccc3OC)cc2s1 | 25.8 | 23.9 | 
CCc1cccc(CC)c1NC(=O)CSc1nc2ccc(NC(=O)C3CC3)cc2s1 | -9.23 | 32.4 | 
CCc1cccc(CC)c1NC(=O)CSc1nc2ccc(NC(=O)c3ccncc3)cc2s1 | 39.1 | 12.6 | 
CCc1cccc(CC)c1NC(=O)CSc1nc2ccc(NC(=O)Cc3ccccc3OC)cc2s1 |  | -12.3 | 
CCCCOc1ccc(C(=O)Nc2ccc3nc(SC(C)C(=O)Nc4c(C)cc(C)cc4C)sc3c2)cc1 (centres undefined) | 21.5 |  | 
COc1ccc(C(=O)Nc2ccc3nc(SCC(=O)NCc4ccc(F)cc4)sc3c2)cc1 |  | 5.48 | 
COc1cc(/C=C/C(=O)CC(=O)/C=C/c2ccc(O)c(OC)c2)ccc1O [CURCUMIN] | 30.7 | 3.88 | IC50 [9]: 19.2 µM; inhibition [10]: Dose-dependent effect; IC50 (MDA-MB-468 [7]): 196 µM

Continued, in another order:

inhibition [1] [%] | SMILES | inhibition at 10 µM (MDA-MB-468 [2]) [%] | also measured
11.5 | C[C@H](NC(=O)CSc1nc2ccc(NC(=O)c3ccc(OCc4ccccc4)cc3)cc2s1)c1ccccc1 | 3.02 | 
25.8 | CCCC(C)Oc1ccc(C(=O)Nc2ccc3nc(SCC(=O)Nc4c(CC)cccc4CC)sc3c2)cc1 (centres undefined) | 34.9 | 
23.8 | COc1ccc(C(=O)Nc2ccc3nc(SCC(=O)NCc4ccc([N+](=O)[O-])cc4)sc3c2)cc1 | -20.4 | 
-5.71 | CCc1cccc(CC)c1NC(=O)CSc1nc2ccc(NC(=O)c3ccc([N+](=O)[O-])cc3)cc2s1 | 6.13 | 
30.9 | CCCCOc1ccc(C(=O)Nc2ccc3nc(SCC(=O)N[C@@H](C)c4ccccc4)sc3c2)cc1 | 57.2 | 
49.5 | CCCCOc1ccc(C(=O)Nc2ccc3nc(SCC(=O)Nc4c(CC)cccc4CC)sc3c2)cc1 |  | 
43 | COc1ccc(C(=O)Nc2ccc3nc(SCC(=O)N[C@@H](C)c4ccccc4)sc3c2)cc1 | -44.7 | 
-0.31 | COc1ccc(C(=O)Nc2ccc3nc(SCC(=O)N[C@H](C)c4ccccc4)sc3c2)cc1 | -56.8 | 
18.9 | CCCCCOc1ccc(C(=O)Nc2ccc3nc(SCC(=O)Nc4c(CC)cccc4CC)sc3c2)cc1 | 24.1 | 
22.6 | CCc1cccc(CC)c1NC(=O)CSc1nc2ccc(NC(=O)c3ccc(OCc4ccccc4)cc3)cc2s1 | 44.6 | 
30.7 | CCCCCOc1ccc(C(=O)Nc2ccc3nc(SCC(=O)N[C@@H](C)c4ccccc4)sc3c2)cc1 | 61.1 | 
51.1 | CCCC(C)Oc1ccc(C(=O)Nc2ccc3nc(SCC(=O)N[C@@H](C)c4ccccc4)sc3c2)cc1 (some centres undefined) | 51.4 | Activity [4]: inactive; Activity (HepG2 [5]): inactive; Activity (HepG2 [6]): inactive; IC50 (MDA-MB-468 [7]): 16.1 µM; inhibition [8]: Active
-5.89 | COc1ccc(C(=O)Nc2ccc3nc(SCC(=O)Nc4c(C)cccc4C)sc3c2)cc1 | 5.01 | 
